Test results published in US20080254445A1, “Prognosis in Cancer Patients Vaccinated with a Cancer Antigen Peptide-Associated Agent” (priority 2003, published 2008).

Key:
[1] = system: peptide-specific CTL precursors in PBMCs; assay: Peptide-specific CTL precursors in pre- and post (6th)-vaccination PBMCs by IFN-γ-release assay; assay type: cell-based, human; settings: post (6th)-vaccination PBMC; positive cases/No. of tested cases (% positive)
[2] = Delayed type hypersensitivity (DTH) skin test; assay type: in vivo, human; settings: skin test site, first to 6th vaccination; positive cases/No. of tested cases (% positive)
peptide-reactive IgG = assay: ELISA of peptide-reactive serum IgG in pre- and post-vaccination sera; assay type: in vivo, human; settings: post (3rd and 6th)-vaccination sera vs pre-vaccination; positive cases/No. of tested cases (% positive)

Sequence	Increased immune reactions to peptide: CTL activity [1]	Increased immune reactions to peptide: DTH response [2]	Increased immune reactions to peptide: IgG antibody (peptide-reactive IgG)
ASLDSDPWV [WHSC103]	0/6		
RLAEYQAYI [SART3 309]	0/6	0/9	
SYTRLFLIL [SART2 899]	0/7		
AFLRHAAL [ART4 13]	0/1	0/4	0/2
ILGELREKV [WHSC141]		0/8	
ALVEFEDVL [HNRPL140]	0/5	0/5	0/5
LLQAEAPRL [SART3 302]	0/4	0/6	0/5
KFHRVIKDF [CypB84]	0/3	0/4	
KLVERLGAA [Ick246]		0/7	
RIIYDRKFL [EIF51]	0/1	0/1	
ILPRKHHRI [UBE208]	0/1	0/1	
KLKHYGPGWV [CypB129]	0/6		
DYPSLSATDI [ART4 75]			0/15
DYSARWNEI [SART2 93]		0/19	
EYCLKFTKL [ART1 170]	0/7	0/9	
DVWSFGILL [Ick422]			0/10
LIADFLSGL [UBE85]		0/2	
DFMIQGGDF [CypB91]	0/17		
